The target in test [1] is Delta-type opioid receptor (Rattus norvegicus) (UniProt P33533). Put plainly: Agonist activity at rat delta opioid receptor expressed in rat C6 cell membranes assessed as stimulation of [35S]GTPgammaS binding incubated for 1 hr by liquid scintillation counting method relative to DPDPE. It is filed as functional. (In general: Binding of GTPγS marks nucleotide exchange on a G protein.)

The target of test [2] is T1, Kappa-type opioid receptor (Homo sapiens, UniProt P41145). The test is described as follows: Antagonist activity at human kappa opioid receptor expressed in CHO cell membranes assessed as inhibition of U-69,593-induced [35S]GTPgammaS binding measured after 1 hr by liquid scintillation counting method. It is filed as functional.
T1 sequence (P41145 whole entry): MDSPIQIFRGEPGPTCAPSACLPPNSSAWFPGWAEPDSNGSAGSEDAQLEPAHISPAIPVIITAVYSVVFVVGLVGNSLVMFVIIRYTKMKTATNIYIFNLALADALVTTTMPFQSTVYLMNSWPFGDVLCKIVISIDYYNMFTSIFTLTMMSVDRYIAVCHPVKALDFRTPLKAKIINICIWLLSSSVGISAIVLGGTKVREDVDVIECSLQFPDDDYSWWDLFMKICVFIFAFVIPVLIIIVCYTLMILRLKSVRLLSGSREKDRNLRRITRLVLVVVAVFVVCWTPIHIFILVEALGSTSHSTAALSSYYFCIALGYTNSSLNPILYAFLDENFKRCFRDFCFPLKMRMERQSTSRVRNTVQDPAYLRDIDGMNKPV
For test [3], the target named is T2, Mu-type opioid receptor (Rattus norvegicus, UniProt P33535). Put plainly: Agonist activity at rat mu opioid receptor expressed in rat C6 cell membranes assessed as stimulation of [35S]GTPgammaS binding incubated for 1 hr by liquid scintillation counting method. The format is functional.
T2 sequence (P33535 whole entry): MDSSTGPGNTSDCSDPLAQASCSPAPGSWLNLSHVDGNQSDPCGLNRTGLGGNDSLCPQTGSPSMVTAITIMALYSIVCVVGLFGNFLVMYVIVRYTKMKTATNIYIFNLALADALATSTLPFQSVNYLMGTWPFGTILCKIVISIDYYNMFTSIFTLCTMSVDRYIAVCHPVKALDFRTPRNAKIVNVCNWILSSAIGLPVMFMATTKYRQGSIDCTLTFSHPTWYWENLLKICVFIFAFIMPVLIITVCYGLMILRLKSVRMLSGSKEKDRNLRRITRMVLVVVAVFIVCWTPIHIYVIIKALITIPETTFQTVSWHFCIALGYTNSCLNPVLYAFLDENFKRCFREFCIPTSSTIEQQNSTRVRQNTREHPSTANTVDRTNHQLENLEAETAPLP
Test [4] addresses T3, Delta-type opioid receptor (Rattus norvegicus, UniProt P33533). Put plainly: Agonist activity at rat delta opioid receptor expressed in rat C6 cell membranes assessed as stimulation of [35S]GTPgammaS binding incubated for 1 hr by liquid scintillation counting method. It is filed as functional.
The target of test [5] is T2, Mu-type opioid receptor.
Test [6] deals with Mu-type opioid receptor (Rattus norvegicus) (UniProt P33535). To be noted: at 100 nM.
Chain of Mu-type opioid receptor (Rattus norvegicus) (P33535 whole entry): as above
Test [7] deals with Kappa-type opioid receptor (Rattus norvegicus, UniProt P34975). The test is described as follows: Displacement of [3H]U-69,593 from kappa opioid receptor in rat brain after 60 mins by liquid scintillation counting method. (In general: In a radioligand displacement assay an active substance lowers the binding of a labelled ligand.)
Chain of Kappa-type opioid receptor (Rattus norvegicus, UniProt P34975) (P34975 whole entry): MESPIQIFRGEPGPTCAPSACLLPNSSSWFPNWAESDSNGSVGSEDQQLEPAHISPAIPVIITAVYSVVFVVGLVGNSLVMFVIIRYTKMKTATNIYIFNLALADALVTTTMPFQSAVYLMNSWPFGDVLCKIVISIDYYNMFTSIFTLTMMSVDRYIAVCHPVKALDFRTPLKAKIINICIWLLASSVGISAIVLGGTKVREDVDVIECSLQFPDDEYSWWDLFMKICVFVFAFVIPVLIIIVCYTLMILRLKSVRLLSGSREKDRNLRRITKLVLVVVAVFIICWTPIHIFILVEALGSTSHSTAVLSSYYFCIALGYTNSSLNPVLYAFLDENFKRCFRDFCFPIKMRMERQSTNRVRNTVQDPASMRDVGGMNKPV
Test [8] has as its target Kappa-type opioid receptor (Rattus norvegicus) (UniProt P34975). The test is described as follows: Displacement of [3H]U-69,593 from kappa opioid receptor in rat brain at 100 nM after 60 mins by liquid scintillation counting method relative to control.
For test [9], the target named is T3, Delta-type opioid receptor. The test is described as follows: Displacement of [3H]DADLE from delta opioid receptor in rat brain after 60 mins by liquid scintillation counting method.
Test [10] addresses Delta-type opioid receptor (Rattus norvegicus) (UniProt P33533). The test is described as follows: Displacement of [3H]DADLE from delta opioid receptor in rat brain at 100 nM after 60 mins by liquid scintillation counting method relative to control.
Test [11] has as its target Mu-type opioid receptor (Rattus norvegicus) (UniProt P33535). The test is described as follows: Agonist activity at rat mu opioid receptor expressed in rat C6 cell membranes assessed as stimulation of [35S]GTPgammaS binding incubated for 1 hr by liquid scintillation counting method relative to DAMGO. The format is functional.
The species named for another test is Rattus norvegicus. Put plainly: Selectivity ratio of EC50 for rat delta opioid receptor to EC50 for rat mu opioid receptor.
Test [12] has as its target T1, Kappa-type opioid receptor. The test is described as follows: Agonist activity at human kappa opioid receptor expressed in CHO cell membranes assessed as stimulation of [35S]GTPgammaS binding incubated for 1 hr by liquid scintillation counting method relative to U-69,593. The format is functional.
Test [13] deals with Mu-type opioid receptor (Rattus norvegicus) (UniProt P33535). Put plainly: Antagonist activity at rat mu opioid receptor expressed in rat C6 cell membranes assessed as inhibition of DAMGO-induced [35S]GTPgammaS binding measured after 1 hr by liquid scintillation counting method. The format is functional.
Test [14] in a line: Selectivity ratio of EC50 for human kappa opioid receptor expressed in CHO cell membranes to EC50 for rat mu opioid receptor expressed in rat C6 cell membranes. The format is cell-based.
The target in test [15] is T1, Kappa-type opioid receptor. The test is described as follows: Agonist activity at human kappa opioid receptor expressed in CHO cell membranes assessed as stimulation of [35S]GTPgammaS binding incubated for 1 hr by liquid scintillation counting method. It is filed as functional.
Test [16] has as its target Mu-type opioid receptor (Rattus norvegicus) (UniProt P33535). Put plainly: Antagonist activity at rat brain mu opioid receptor expressed in rat C6 cell membranes assessed as inhibition of DAMGO-induced [35S]GTPgammaS binding at 1 uM after 1 hr by liquid scintillation counting method. It is filed as functional.

Experimental findings from ChEMBL document CHEMBL4038276 (Bioorg Med Chem, 2017) are described below.

Active and inactive are the calls of the source. No cut-off for these calls is given here.

T3 sequence (P33533 whole entry): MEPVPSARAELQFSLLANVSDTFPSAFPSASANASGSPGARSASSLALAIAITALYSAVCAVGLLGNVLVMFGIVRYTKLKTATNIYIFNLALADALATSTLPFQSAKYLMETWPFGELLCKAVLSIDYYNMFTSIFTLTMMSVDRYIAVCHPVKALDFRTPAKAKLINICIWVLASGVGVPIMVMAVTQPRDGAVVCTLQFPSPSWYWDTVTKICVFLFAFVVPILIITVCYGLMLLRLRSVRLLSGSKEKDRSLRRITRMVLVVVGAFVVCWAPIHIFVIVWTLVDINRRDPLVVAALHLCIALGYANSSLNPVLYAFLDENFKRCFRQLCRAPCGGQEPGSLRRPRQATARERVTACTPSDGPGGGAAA
Chain of Delta-type opioid receptor (Rattus norvegicus) (P33533 whole entry): as above
Chain of Kappa-type opioid receptor (Rattus norvegicus) (P34975 whole entry): as the sequence (P34975 whole entry) above

A word on the inhibition: it is the drop in the measured response relative to a control, in per cent. In general, EC50 refers to the concentration giving half of the maximal effect. The Ki is the equilibrium dissociation constant of an inhibitor or competing ligand from its target. As to `O=[N+]([O-])c1ccc(CCN2CC[C@@]3(c4cccc(O)c4)CCC[C@@H]2[C@H]3O)cc1`, the Activity in test [1] and in test [11] was 104% each time. Moreover, the inhibition entry in test [2] is “Active”. Moreover, the results for the EC50 (at Mu-type opioid receptor [3]; in [4]) were 0.74 nM and 630 nM, respectively. For the same molecule, the values for the Ki (at Mu-type opioid receptor [5]; in test [7]; in [9]) were 0.073 nM, 54.5 nM and 9.81 nM, respectively. Further, the inhibition in test [6], in test [8] and in test [10] was above 50% in each case. In addition, the Ratio EC50 in the test filed under Rattus norvegicus amounted to 850.
Turning to `CC[C@]12CCN(CC3CC3)[C@H](C(=O)c3ccc(O)cc31)[C@H]2C`, the Activity in test [12] came out at 93%.
`C=CCN1CC[C@@]2(c3cccc(O)c3)CCC[C@@H]1[C@H]2O`: at Mu-type opioid receptor [3], the EC50 is 2060 nM. The molecule further yielded a Ki on Mu-type opioid receptor [5] of 29.2 nM. For the same molecule, the inhibition is above 50% in test [6], below 50% in test [8] and below 50% in test [10]. The Activity in [11] worked out at 67%.
With `Oc1cccc([C@]23CCC[C@H]([C@@H]2O)N(C[C@@H]2C[C@@H]2c2ccccc2)CC3)c1`, on Mu-type opioid receptor [3], the concentration for a half-maximal effect (EC50) worked out at 797 nM. The molecule also gave a Ki at Mu-type opioid receptor [5] of 11.6 nM. The inhibition is above 50% in test [6], below 50% in [8] and below 50% in [10]. Moreover, the Activity in [11] came to 22%.
As to `Oc1cccc([C@]23CCC[C@H]([C@@H]2O)N(C[C@@H]2C[C@H]2c2ccccc2)CC3)c1`, the inhibition entry in test [13] is “Active”. Also, the affinity on Mu-type opioid receptor [5], expressed as Ki, was 44.5 nM. The results for the inhibition in [6], in [8] and in [10] were above 50%, below 50% and below 50%, respectively.
Regarding `Oc1cccc(C23CCCC(C2O)N(C/C=C/c2ccccc2)CC3)c1` (single isomer, unassigned), the Activity in test [1] is 51%; in test [11] it was 20%. Moreover, the EC50 amounted to 1.9 nM on Mu-type opioid receptor [3] and 253 nM in test [4]. The Ki at Mu-type opioid receptor [5] amounted to 0.741 nM; in [9], 17.8 nM. The inhibition in [6] is above 50%; in test [8], below 50%; in test [10] it was above 50%. Moreover, the Ratio EC50 in the test filed under Rattus norvegicus is 133.
For `Oc1cccc([C@@]23CCC[C@@H]([C@@H]2O)N(CC/C=C/c2ccccc2)CC3)c1`, the inhibition result in test [13] was “Active”. The Ki on Mu-type opioid receptor [5] came to 25 nM. Moreover, the values for the inhibition in [6], in test [8] and in test [10] were above 50%, below 50% and below 50%, respectively.
In the case of `Oc1cccc([C@]23CCC[C@H]([C@H]2O)N(CCc2ccc(C(F)(F)F)cc2)CC3)c1`, the figures for the Activity in test [1], in test [12] and in [11] were 50%, 18% and 83%, respectively. Also, the EC50 on Mu-type opioid receptor [3] amounted to 19 nM; in test [4], 901 nM; in test [15] it was 761 nM. The Ratio EC50 in test [14] was 40; in the test listed under Rattus norvegicus it was 47. The Ki on Mu-type opioid receptor [5] amounted to 1.99 nM; in test [7], 29.9 nM; in [9], 161 nM. In addition, the inhibition in test [6], in [8] and in test [10] was above 50% throughout.
As for `Oc1cccc([C@]23CCC[C@H]([C@H]2O)N(CCc2ccccc2)CC3)c1`, the Activity amounted to 100% in [1] and 120% in [11]. The EC50 at Mu-type opioid receptor [3] was found to be 22 nM; in test [4], 1080 nM. Besides, the values for the Ki (at Mu-type opioid receptor [5]; in test [9]) were 0.265 nM and 19.2 nM, respectively. The inhibition in test [6] and in test [10] was above 50% each time.
With `O=[N+]([O-])c1ccc(CCN2CC[C@]3(c4cccc(O)c4)CCC[C@H]2[C@@H]3O)cc1`, in [13], the inhibition entry was “Active”. The same molecule yielded a Ki on Mu-type opioid receptor [5] of 26.5 nM. In addition, the inhibition is above 50% in test [6], below 50% in [8] and below 50% in test [10]. For the same molecule, in test [16], the Ke was determined as 31.5 nM.
On to `C=CCN1C[C@H](C)N([C@H](c2ccc(C(=O)N(CC)CC)cc2)c2cccc(OC)c2)C[C@H]1C`, for which the inhibition in [10] was above 50%.
In [6], `CN1CC[C@]23c4c5ccc(O)c4O[C@H]2[C@@H](O)C=C[C@H]3[C@H]1C5` had an inhibition above 50%.
`Oc1cccc([C@]23CCC[C@H]([C@@H]2O)N(C[C@H]2C[C@H]2c2ccccc2)CC3)c1`: the inhibition entry in test [13] is “Active”. Besides, the Ki at Mu-type opioid receptor [5] came to 51.8 nM. In addition, the inhibition in test [6] was above 50%; in test [8], below 50%; in [10] it was below 50%.
